Data reported in ChEMBL document CHEMBL6127042, “Design, synthesis and antimycobacterial activity of novel benzothiazinones with improved water solubility” (Eur J Med Chem, 2024).
Values after ≈ are worked out from the molar mass of the structure shown.

Legend:
[1] = system: Mycobacterium tuberculosis; assay: Antitubercular activity against multidrug resistant Mycobacterium tuberculosis 16833 assessed as bacterial growth inhibition incubated for 7 days in 7H9 medium by alamar blue staining based microplate fluorometric analysis; type: functional; conditions: Mycobacterium tuberculosis, 16833, 168 h; time 7 day
[2] = Selectivity index, ratio of CC50 for cytotoxicity against African green monkey Vero cells to MIC for antimycobacterial activity against multidrug resistant Mycobacterium tuberculosis 16833; type: toxicity, cell-based; conditions: read-out: Selectivity Index
[3] = system: Mycobacterium tuberculosis; assay: Antitubercular activity against multidrug resistant Mycobacterium tuberculosis 16995 assessed as bacterial growth inhibition incubated for 7 days in 7H9 medium by alamar blue staining based microplate fluorometric analysis; type: functional; conditions: Mycobacterium tuberculosis, 16995, 168 h; time 7 day

`O=C(O)CNC(=O)CCON=C1CCC(CN2CCN(c3nc(=O)c4cc(C(F)(F)F)cc([N+](=O)[O-])c4s3)CC2)CC1` (stereo not drawn) gave an MIC [1] of 0.21 µM (≈ 0.129 µg/mL), a selectivity ratio [2] greater than 496 and an MIC [3] of 0.425 µM (≈ 0.261 µg/mL).

In the case of `CC(C)(C)OC(=O)NCCON=C1CCC(CN2CCN(c3nc(=O)c4cc(C(F)(F)F)cc([N+](=O)[O-])c4s3)CC2)CC1` (stereo not drawn), the MIC [1] is reported as less than 0.025 µM, the selectivity ratio [2] is reported as greater than 4080 and the MIC [3] is reported as 0.041 µM (≈ 0.0258 µg/mL).

Work on `CC(C)(C)OC(=O)CNC(=O)CCON=C1CCC(CN2CCN(c3nc(=O)c4cc(C(F)(F)F)cc([N+](=O)[O-])c4s3)CC2)CC1` (stereo not drawn) yielded an MIC [1] of 0.048 µM (≈ 0.0322 µg/mL), a selectivity ratio [2] greater than 1990 and an MIC [3] of 0.093 µM (≈ 0.0624 µg/mL).

Work on `O=C(O)CCON=C1CCC(CN2CCN(c3nc(=O)c4cc(C(F)(F)F)cc([N+](=O)[O-])c4s3)CC2)CC1` (stereo not drawn) yielded an MIC [1] of 0.212 µM (≈ 0.118 µg/mL), a selectivity ratio [2] greater than 542 and an MIC [3] of 0.221 µM (≈ 0.123 µg/mL).

In the case of `O=C(O)CON=C1CCC(CN2CCN(c3nc(=O)c4cc(C(F)(F)F)cc([N+](=O)[O-])c4s3)CC2)CC1` (stereo not drawn), the MIC [1] is reported as 0.057 µM (≈ 0.031 µg/mL), the selectivity ratio [2] is reported as greater than 2070 and the MIC [3] is reported as 0.057 µM (≈ 0.031 µg/mL).

`CC(C)(C)OC(=O)CNC(=O)C(C)(C)ON=C1CCC(CN2CCN(c3nc(=O)c4cc(C(F)(F)F)cc([N+](=O)[O-])c4s3)CC2)CC1` (stereo not drawn) showed an MIC [1] of 0.067 µM (≈ 0.0459 µg/mL), a selectivity ratio [2] greater than 1400 and an MIC [3] of 0.066 µM (≈ 0.0452 µg/mL).

With `C[C@H](NC(=O)CON=C1CCC(CN2CCN(c3nc(=O)c4cc(C(F)(F)F)cc([N+](=O)[O-])c4s3)CC2)CC1)C(=O)OC(C)(C)C` (stereo partly drawn) the MIC [1] was 0.14 µM (≈ 0.0939 µg/mL), the selectivity ratio [2] was greater than 682 and the MIC [3] was 0.167 µM (≈ 0.112 µg/mL).

With `CC(C)(C)OC(=O)CNC(=O)CON=C1CCC(CN2CCN(c3nc(=O)c4cc(C(F)(F)F)cc([N+](=O)[O-])c4s3)CC2)CC1` (stereo not drawn) the MIC [1] was 0.239 µM (≈ 0.157 µg/mL), the selectivity ratio [2] was greater than 408 and the MIC [3] was 0.03 µM (≈ 0.0197 µg/mL).

Work on `O=C(O)CNC1CCC(CN2CCN(c3nc(=O)c4cc(C(F)(F)F)cc([N+](=O)[O-])c4s3)CC2)CC1` (stereo not drawn) yielded an MIC [1] of 0.087 µM (≈ 0.0461 µg/mL), a selectivity ratio [2] greater than 1390 and an MIC [3] of 0.095 µM (≈ 0.0503 µg/mL).

For `C[C@H](NC(=O)C(C)(C)ON=C1CCC(CN2CCN(c3nc(=O)c4cc(C(F)(F)F)cc([N+](=O)[O-])c4s3)CC2)CC1)C(=O)OC(C)(C)C` (stereo partly drawn), the MIC [1] was less than 0.023 µM, the selectivity ratio [2] was greater than 3980 and the MIC [3] was 0.03 µM (≈ 0.021 µg/mL).

Molecule `CC(C)(ON=C1CCC(CN2CCN(c3nc(=O)c4cc(C(F)(F)F)cc([N+](=O)[O-])c4s3)CC2)CC1)C(=O)O` (stereo not drawn) has an MIC [1] of 0.375 µM (≈ 0.214 µg/mL), a selectivity ratio [2] greater than 299 and an MIC [3] of 0.109 µM (≈ 0.0623 µg/mL).

With `CC(C)(C)OC(=O)CCON=C1CCC(CN2CCN(c3nc(=O)c4cc(C(F)(F)F)cc([N+](=O)[O-])c4s3)CC2)CC1` (stereo not drawn) the MIC [1] was 0.031 µM (≈ 0.019 µg/mL), the selectivity ratio [2] was greater than 3370 and the MIC [3] was 0.068 µM (≈ 0.0417 µg/mL).

`NNC(=O)c1ccncc1` [ISONIAZID] gave an MIC [1] greater than 72.9 µM and an MIC [3] greater than 72.9 µM.

`O=c1nc(N2CCN(CC3CCCCC3)CC2)sc2c([N+](=O)[O-])cc(C(F)(F)F)cc12` [MACOZINONE] gave an MIC [1] of less than 0.035 µM, a selectivity ratio [2] greater than 4010 and an MIC [3] of less than 0.035 µM.

Work on `CO[C@H]1/C=C/O[C@@]2(C)Oc3c(C)c(O)c4c(O)c(c(/C=N/N5CCN(C)CC5)c(O)c4c3C2=O)NC(=O)/C(C)=C\C=C\[C@H](C)[C@H](O)[C@@H](C)[C@@H](O)[C@@H](C)[C@H](OC(C)=O)[C@@H]1C` [RIFAMPIN] yielded an MIC [1] greater than 12.2 µM and an MIC [3] greater than 12.2 µM.
